According to patent US11440935B2, “3″,5″-dimethoxybenzoyl-3′-amino-3′-deoxy adenosine-5′-triphosphates and pharmaceutical uses thereof” (Danmir Therapeutics, LLC, priority 2018, dated 2022):
Several values for one entry are separate records, joined by “and”; a condition that tells them apart may be missing. Equal entries are not always repeated. Entries after “also recorded” stand apart in the source; their conditions may differ. Structures can show the parent of a compound that is named as a salt.

Key:
[1] = test system: P2X3 receptor; conditions: guinea pig airway-specific primary nodose ganglion cell afferents; cited from earlier work
[2] = test system: conscious guinea-pigs; assay: Aerosolized ATP-induced cough in conscious free moving guinea-pigs; type: in vivo, guinea-pig
Procedure: This study was performed in 6 guinea-pigs. The housing room was constantly ventilated, and the temperature kept at ˜23° C. After quarantine, the animals were individually placed in a whole-body, unrestrained, plethysmograph chamber (model PLY3215, Buxco Electronics Inc., Troy, N.Y.) for ˜40 min once a day for two continuous days before the cough test. All GPs were weighed before the cough study.
ATP was purchased from Sigma-Aldrich (Cat #A2383-10G). Solutions of ATP used for aerosol challenge were freshly made just prior to use by dissolving the powder in 0.9% saline (NaCl) solution. Solutions of DT-0111 used for aerosol administration were freshly made by dissolving the powder in 0.9% saline (NaCl) solution.
A plethysmograph chamber was continuously flushed with normoxic (21% O2 and 79% N2) room air at 2 L/min. The same amount of air was drawn through the chamber base outlets using a Buxco bias flow regulator to keep the chamber bias flow balanced. ATP or DT solution was aerosolized by using a vibrating mesh nebulizer (Ireland Ltd., Galway Ireland, AG-AL1100). The output rate of delivered aerosol was around 0.5 ml/min with droplet size (volume median diameter) at 2.5-4.0 μm (manufacture's indications). The aerosol was mixed with airflow and directly delivered into the plethysmograph chamber. The latter was placed in a standard chemical fume hood (size: 3×6 ft) installed in a standard laboratory.
A guinea-pig was placed in the chamber again after adaptation. Following stabilization, #1 guinea-pig was exposed to aerosolized ATP at 6 mg/ml, 24 mg/ml, and then 48 mg/ml for 5 min with an interval of 30 min. The remaining animals (#2-#6 guinea-pigs) were exposed to aerosolized ATP at 48 mg/ml for 5 min. Approximately 140 min later, the same dose of ATP was repeated immediately after DT-0111 aerosol inhalation (12 mg/ml for 5 min). […] The cough sound and behavioral activities were continuously monitored and recorded before (for 3 min), during 5 min aerosol delivery, and 20 min after cessation of the delivery.
Setup of the cough recording system. The top of the plethysmograph chamber was connected with a plastic tube that was attached by the nebulizer. Normoxic air driven by the nebulizer controller was flowed into the chamber and sucked out by the bias flow regulator with the in and out flow volume balanced (2.0 L/min). To detect cough, a microphone system was mounted in the roof of the chamber to record sound; a video camera was placed outside of the chamber to monitor animal body posture; and a Buxco pneumotachograph (differential pressure transducer) attached to the chamber to record airflow. All signals generated by video camera, microphone, and pressure transducer were amplified and recorded continuously by PowerLab/8 sp (model ML 785; ADInstruments Inc., Colorado Springs, Colo.) and a computer with the LabChart Pro 7 software.
Cough count. A typical cough response, as reported before (Girard et al., Eur Respir J, 1995; Blasko et al., American Journal of Advanced Drug Delivery. 5:131-138, 2017; Corboz et al., Journal of Pharmacology and Experimental Therapeutics. 363: 348-357, 2017), was defined by the simultaneous appearance of: 1) a transient and great change in the airflow (a rapid inspiration followed by rapid expiration); 2) a typical cough sound with the peak power density at 1-2 kHz in frequency spectrum (sneeze at 3.5-6.5 kHz); and 3) animal body (head) posture and movement.

[3] = molecular target: T1, P2X2/3 receptor (Rattus norvegicus, UniProt P49653+P49654); assay: Nodose ganglion neuron assay of P2X2/3 receptor antagonism (whole-cell voltage-clamp); type: cell-based; conditions: rat nodose ganglionic cell; for antagonism of ATP-induced inward current: ATP 10 μM, whole-cell voltage clamp
T1 construct: Single neurons were enzymatically isolated from rats' nodose ganglia; from tissue; host or cells: dissociated nodose ganglion neurons of 17-day-old male Sprague-Dawley rats
T1 sequence (P49653 1-472): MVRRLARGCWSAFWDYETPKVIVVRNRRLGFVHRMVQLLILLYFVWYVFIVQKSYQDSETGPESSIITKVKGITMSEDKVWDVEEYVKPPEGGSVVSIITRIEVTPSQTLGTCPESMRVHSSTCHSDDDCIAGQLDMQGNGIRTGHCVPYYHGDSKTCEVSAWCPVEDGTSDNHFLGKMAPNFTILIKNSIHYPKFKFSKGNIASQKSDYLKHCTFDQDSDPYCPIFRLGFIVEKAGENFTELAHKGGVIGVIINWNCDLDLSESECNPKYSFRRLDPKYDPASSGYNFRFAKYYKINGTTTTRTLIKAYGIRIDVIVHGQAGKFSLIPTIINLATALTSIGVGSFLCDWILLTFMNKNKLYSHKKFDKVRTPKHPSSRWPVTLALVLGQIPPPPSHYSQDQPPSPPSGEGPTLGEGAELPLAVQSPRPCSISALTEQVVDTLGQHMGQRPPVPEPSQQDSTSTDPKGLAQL
T1 sequence (P49654 1-397): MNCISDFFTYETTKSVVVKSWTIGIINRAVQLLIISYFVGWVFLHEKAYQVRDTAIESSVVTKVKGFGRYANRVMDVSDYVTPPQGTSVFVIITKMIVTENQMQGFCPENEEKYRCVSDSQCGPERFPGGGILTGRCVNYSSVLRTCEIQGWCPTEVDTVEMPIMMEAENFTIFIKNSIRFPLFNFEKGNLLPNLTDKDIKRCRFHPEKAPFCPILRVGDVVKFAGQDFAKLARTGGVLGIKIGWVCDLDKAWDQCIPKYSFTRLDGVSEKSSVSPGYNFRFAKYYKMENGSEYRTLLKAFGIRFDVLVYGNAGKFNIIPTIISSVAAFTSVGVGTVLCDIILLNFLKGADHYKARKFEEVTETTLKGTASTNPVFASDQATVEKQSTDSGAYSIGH
Procedure: Single neurons were enzymatically isolated from rats' nodose ganglia as described by Zhong et al., Br J Pharmacol 1998; 125, 771-781. Briefly, 17- day old male Sprague-Dawley rats were killed by CO2 inhalation. Ganglia were rapidly dissected and placed in Leibovitz's L-15 medium (Life Technologies, Paisley, UK). Ganglia were desheathed, cut and incubated in 4 ml Ca^2+/Mg^2+-free Hanks' balanced salt solution with 10 mm Hepes buffer (pH 7.0) (HBSS) (Life Technologies) containing 1.5 mg ml-1 collagenase (Class-II; Worthington Biochemical Corporation, Reading, UK) and 6 mg ml-1 bovine serum albumin (Sigma) at 37° C. for 40 min. Ganglia were then incubated with 4 ml HBSS containing 1 mg ml-1 trypsin (Sigma) at 37° C. for 20 min. The solution was replaced with 3 ml of growth medium comprising L-15 medium supplemented with 10% bovine serum, 50 ng ml-1 nerve growth factor, 0.2% NaHCO3, 5.5 mg ml-1 glucose, 200 IU ml-1 penicillin and 200 μg ml-1 streptomycin. The ganglia were dissociated into single neurons by gentle trituration. The cells were then centrifuged at 160 g for 5 min, resuspended in 1 ml of growth medium, and plated onto 35 mm Petri dishes coated with 10 μg ml-1 laminin (Sigma). Cells were maintained at 37° C. in a humidified atmosphere containing 5% CO2 and used between 2 and 48 hours after plating.
Whole-cell voltage-clamp recordings were performed at room temperature using an Axopatch 200B amplifier (Axon Instruments, Union City, Calif., USA). Membrane potential was held at […]. The external solution contained (mM): 154 NaCl, 4.7 KCl, 1.2 MgCl2, 2.5 CaCl2), 10 Hepes, 5.6 glucose, and the pH was adjusted to 7.4 using NaOH. Recording electrodes (resistance […]) were filled with an internal solution which contained (mm): 56 citric acid, 3 MgCl2, 10 CsCl, 10 NaCl, […], 0.1 EGTA, 10 tetraethylammonium chloride, and the pH was adjusted to 7.2 using CsOH (total Cs+concentration 170 mm). […] Solution exchange measured by changes in open tip current was complete in 200 ms; however, complete exchange of solution around an intact cell was slower (<1 s). […]

[4] = test system: P2X3-P2X2/3; conditions: experimental animals; cited from earlier work
[5] = ATP (48 mg/ml) aerosol 5 min alone, per guinea-pig

For `COc1cc(C(C)C)c(Oc2cnc(N)nc2N)cc1I` [AF-353], the “effect on TRPV4 receptor activation effects (Aδ fiber stimulation and coughing)” value [1] is listed as “markedly attenuated”.
For `Nc1ncnc2c1ncn2[C@@H]1O[C@H](COP(=O)(O)OP(=O)(O)OP(=O)(O)O)[C@@H](O)[C@H]1O` [ATP, adenosine 5′-triphosphate], the “cough evoked by aerosolized ATP” value ([2]; ATP 48 mg/ml, 5 min exposure, all animals) was “evoked significant coughs”, the “Bout Cough B1# (cough number in first bout)” value [2, 5] was 24 and 14 and 18 and 19 and 21 and the “Individual Cough” value [2, 5] was 3 and 0 (2×) and 1 (3×). For the same compound, the Subtotal coughs ([2]; ATP (48 mg/ml) aerosol 5 min alone, per guinea-pig and Mean) was 27 and 24 and 35 and 19 and 22.
In the case of `COc1cc(OC)cc(C(=O)NC2C(O)[C@H](n3cnc4c(N)ncnc43)O[C@@H]2COP(=O)(O)OP(=O)(O)OP(=O)(O)O)c1` (stereo partly drawn) [Compound 11, 3″,5″-Dimethoxybenzoyl-3′-amino-3′-deoxyadenosine-5′-triphosphate Triethyl Ammonium Salt], the “antagonism of ATP-induced inward current” value ([3]; listed as 3″,5″-dimethoxybenzoyl-3′-amino-3′-deoxyadenosine-5′-triphosphate triethylammoni, Ammonium Salt) is reported as “substantially abrogated”, the “antagonism of ATP-induced inward current” value ([3]; listed as compound 11, Ammonium Salt) is reported as “substantially abrogated; also recorded: complete antagonism at the higher concentrations” and the “reversibility of antagonism on washout” value ([3]; after washing out the antagonist) is reported as “reversible”.
In the case of `O=C(O)c1cc(C(=O)O)c(C(=O)N(Cc2cccc(Oc3ccccc3)c2)[C@H]2CCCc3ccccc32)cc1C(=O)O` [Compound A-317491], the “effect on cyclophosphamide (CYP)-induced cystitis” value [4] is listed as “inhibit cyclophosphamide (CYP)-induced cystitis”.
